Assay results taken from ChEMBL document CHEMBL1133043, “Potent inhibition of retinoic acid metabolism enzyme(s) by novel azolyl retinoids” (Bioorg Med Chem Lett, 2000).

What follows are compounds tested on Cricetinae gen. sp. (assay: The compound was tested for the inhibition of all-trans retinoic acid (ATRA) catabolism using 7.27 pmol [11,12-3H]-ATRA as substrate in microsomal preparations of male hamster liver fortified with NADPH).
Type: functional

Structure (SMILES) | IC50
CC1=C(/C=C/C(C)=C/C=C/C(C)=C/C(=O)O)C(C)(C)CCC1n1cncn1 (stereo not given) | 0.88 µM
CC1=C(/C=C/C(C)=C/C=C/C(C)=C/C(=O)O)C(C)(C)CCC1n1ccnc1 (stereo not given) | 0.1 µM
CC(=O)N1CCN(c2ccc(OC[C@H]3CO[C@](Cn4ccnc4)(c4ccc(Cl)cc4Cl)O3)cc2)CC1 [KETOCONAZOLE] | 34 µM

Other lines, results leading:

IC50 | Structure (SMILES)
0.68 µM | COC(=O)/C=C(C)/C=C/C=C(C)/C=C/C1=C(C)C(n2cncn2)CCC1(C)C (stereo not given)
1.62 µM | CC1=C(/C=C/C(C)=C/C=C/C(C)=C/C(=O)O)C(C)(C)CCC1n1cnnc1 (stereo not given)
